Experimental findings from patent US20140127157A1, “ANTIVIRAL ACTIVITY OF TYROSINE KINASE INHIBITORS AGAINST HEPATITUS C VIRUS” (priority 2012, published 2014) are described below.

Like-named read-outs stand apart in the source and are kept apart here.

The nature of one series: in vitro. The settings on record: human. An excerpt:
(§1) The infectious cell culture system for HCV (HCVcc) is based on a unique full length strain of genotype 2a derived from a patient with fulminant hepatitis (JFH-1). HCVcc allows the complete virus life cycle to be studied in cell culture. A chimeric strain of JFH-1, termed Jc1JFH, is capable of more robust growth in tissue culture and can be engineered to encode a reporter gene. The activity of compounds such as nilotinib against HCVcc can be investigated using a Jc1JFH reporter virus encoding luciferase (Table 1). Naïve Huh-7.5 cells are treated with serially diluted compounds in DMSO for 2 h prior to infection with HCVcc. […] Both EC50 and CC50 values are normalized to cells treated with DMSO alone.

Series [1] concerns HCVcc. As to the kind of experiment: microbe, parasite or virus in culture. Conditions: for EC50: Hepatitis C virus.
Text: as §1

The next series concerns HCVrep. The series can be described thus: HCV replicon (HCVrep) luciferase assay, JFH-1-based replicon cell line. Also noted: species or system Hepatitis C virus (HCV). An excerpt:
(§2) HCVrep comprises a stable cell line harboring a sub-genomic replicon encoding a selectable marker (e.g., neomycin phosphotransferase), a reporter gene (e.g., luciferase) and the minimal HCV replicase proteins, NS3 to NS5B. Since the subgenomic replicon is non-infectious, the HCVrep system is used to study viral RNA replication independently of other stages of the life cycle, including virus entry/assembly/release. […] To determine the effects of compounds such as nilotinib on HCV RNA replication, a stable JFH-1-based replicon cell line encoding luciferase was established.

Series [2] has as its system HCVcc. The series can be described thus: Time of addition experiment with HCVcc (FIG. 1). Format: cell-based, Hepatitis C virus (HCV). Conditions: treatment 1 (compound during first 4 h of infection) vs treatment 2 (added 4 h post-infection); luciferase at 72 h. The method, then:
FIG. 1. The effect of agents added before or after entry of HCV into cells. The presence of compound during both binding and post-binding are indicated by black bars; white bars indicate compounds present only at post-binding. DMSO, dimethyl sulfoxide; 5Ainh, HCV NS5A inhibitor (50×EC50); nilotinib (50×EC50); α-CD81, anti-CD81 antibody (1 μg/mL); α-IgG, iso-type control antibody (1 μg/mL).
To further explore the MOA of compounds such as nilotinib, a time of addition experiment is performed to determine whether the compound acted at an early (i.e., entry) or late (i.e., assembly/release) stage of the virus life cycle. Naive Huh7.5 cells are infected for 4 h with HCVcc in either the presence (treatment 1) or absence (treatment 2) of compound. At 4 h post-infection, compound is then added to the treatment 2 cells. At 72 h post infection, luciferase activity is determined. An inhibitor of viral entry (antibody targeting CD81) and an HCV replication inhibitor (5Ainh) are used as comparators.

Series [3] can be described thus: Cytotoxicity in HCVrep cell line.
Text: as §1, §2

Another series has as its system HCV entry. Format: cell-based, Hepatitis C virus (HCV). The settings on record: binding 1.5 h at 4° C., shift to 37° C., compound added at 20 min intervals up to 2 h; luciferase after 48 h.
Setting [4] is: Table 2, ratio of cytotoxicity to antiviral potency.

Description for HCV entry: The effect of agents added during entry of HCV into cells-. HCV kinetic entry assay in the presence of compounds.
In this assay, infection is synchronized by incubation of cells and virus together for 1.5 h at 4° C. to allow binding, but not subsequent entry steps. After synchronization, unbound virus is removed by washing, and cells are shifted to 37° C. to initiate post-binding events. Compounds are added either immediately prior to (time zero), or at 20 min intervals post-temperature shift for up to 2 h. Compounds are removed at 4 h post-addition and luciferase activity is measured after 48 h of infection. Controls are included, which are known to block various steps of the HCV entry process: heparin sulfate (virus binding), anti-CD81 antibody (early post-virus binding), concanamycin A (ConA; late post-virus binding), bafilomycin (Baf; late post-virus binding), gefitinib (Gef; late post-virus binding). Percent inhibition is determined relative to treatment with compounds during synchronized virus binding at 4° C. Representative data of percent inhibition versus time of addition (FIG. 2) is used to estimate half-maximal times (t1/2) to inhibit HCV entry.

`Cc1nc(Nc2ncc(C(=O)Nc3c(C)cccc3Cl)s2)cc(N2CCN(CCO)CC2)n1` [Dasatinib, dasatinib] displayed a CC50 in “in vitro” of 18.7 µM. The same compound yielded a CC50/EC50 in the series on HCVcc [1] of 12.65. This compound also came in with an EC50 with HCVcc [1] (Huh7.5) of 1.48 µM.

`C#Cc1cccc(Nc2ncnc3cc(OCCOC)c(OCCOC)cc23)c1` [Erlotinib, erlotinib] registered a CC50 in “in vitro” of more than 25 µM. Also, a half-maximal response with HCVcc [1] (Huh7.5) (EC50) required 0.47 µM.

For the compound `COc1cc2ncnc(Nc3ccc(F)c(Cl)c3)c2cc1OCCCN1CCOCC1` [Gefitinib, gefitinib], the CC50 in “in vitro” amounted to 10.6 µM.

For `Cc1ccc(NC(=O)c2ccc(CN3CCN(C)CC3)cc2)cc1Nc1nccc(-c2cccnc2)n1` [Imatinib, imatinib], the “activity against the replicon” value in the series with HCVrep (at the concentrations tested) was “did not show activity at the concentrations tested”.

With `Cc1ccc(NC(=O)c2ccc(CN3CCN(C)CC3)cc2)cc1Nc1nc(-c2cccnc2)cs1` [Masitinib, masitinib], the CC50 in the series “in vitro” was 6.27 µM. This compound yielded an EC50 in the series on HCVcc [1] (Huh7.5) of 0.77 µM. Moreover, the CC50/EC50 in the series with HCVcc [1] (setting [4]) was 14.58.

Take `Cc1cn(-c2cc(NC(=O)c3ccc(C)c(Nc4nccc(-c5cccnc5)n4)c3)cc(C(F)(F)F)c2)cn1` [Nilotinib, nilotinib]: the “potency when added during versus after HCV entry” value in the series with HCVcc [2] is on record as “significantly more potent when added during the first 4 h of infection”. Moreover, the CC50 came out at 8.77 µM in “in vitro” and 8.8 µM in the series “in vitro” (HCVcc (CC50, μM), uninfected compound-treated cells, CellTiter Glo). For the same compound, the EC50 with HCVrep (Hepatitis C virus, JFH-1-based replicon cell line, 72 h treatment) worked out at 4.2 µM; with HCVcc [1] (Huh7.5) it was 0.04 µM; with HCVcc [1] (Huh7.5, read-out: HCVcc (EC50, μM)), 0.04 µM. Besides, in the series with HCVcc [1], the CC50/EC50 turned out to be 219.25. Moreover, in series [3], the CC50 at 72 h is 8.2 µM.

`Cc1ccc(C(=O)Nc2ccc(CN3CCN(C)CC3)c(C(F)(F)F)c2)cc1C#Cc1cnc2cccnn12` [Ponatinib, ponatinib] registered an EC50 with HCVcc [1] (Huh7.5) of 0.05 µM.

Turning to `CNC(=O)c1cc(Oc2ccc(NC(=O)Nc3ccc(Cl)c(C(F)(F)F)c3)c(F)c2)ccn1` [Regorafenib, regorafenib], the CC50 in “in vitro” was more than 2.5 µM. In the series with HCVcc [1] (Huh7.5), this compound registered an EC50 of 0.33 µM.

Turning to `Cc1cn(-c2cc(NC(=O)c3ccc(C)c(Nc4nccc(-c5cnccn5)n4)c3)cc(C(F)(F)F)c2)cn1` [Rodotinib, radotinib], the CC50 in the series “in vitro” was more than 2.5 µM. In addition, in the series with HCVcc [1] (Huh7.5), the EC50 came out at 0.04 µM.

The compound `CNC(=O)c1cc(Oc2ccc(NC(=O)Nc3ccc(Cl)c(C(F)(F)F)c3)cc2)ccn1` [Sorafenib, sorafenib] yielded a CC50 in the series “in vitro” of 5.75 µM. Moreover, the EC50 with HCVcc [1] (Huh7.5) was 0.47 µM. Also, in the series on HCVcc [1] (setting [4]), the CC50/EC50 came out at 12.23.

Compound `CCN(CC)CCNC(=O)c1c(C)[nH]c(/C=C2\C(=O)Nc3ccc(F)cc32)c1C` [Sunitinib, sunitinib] registered a CC50 in the series “in vitro” of 3.54 µM. Further, in the series with HCVcc [1] (Huh7.5), the response was half-maximal at 0.94 µM (EC50). The CC50/EC50 in the series on HCVcc [1] (setting [4]) stood at 3.77.

As to heparin sulfate, the “inhibition kinetics of HCV entry versus time of addition (t1/2)” value in the series with HCV entry is listed as “effectively blocks infection only when present during virus binding”.
